“Also recorded” adds a separate entry of the source.
Tests used:
[1] = test system: neonatal rat model of necrotizing enterocolitis; assay: Neonatal rat model of necrotizing enterocolitis: clinical (macroscopic) assessment of small intestine on autopsy; assay type: in vivo; settings: for discoloration (visual assessment of luminal blood) / stenosis: FIG. 3; for clinical scoring on autopsy (overall clinical appearance, pathology/damage scores): FIG. 2
Method: (§1) These studies utilized a well-validated neonatal rat model of necrotizing enterocolitis (14). Briefly, neonatal Sprague-Dawley rats (Charles River Laboratories Inc., Wilmington, Mass.) were collected from their mothers immediately after birth, prior to suckling maternal milk. Animals were weighed and placed in infant incubators to control body temperature. Subsequently, rats were hand fed via the orogastric route 0.1 ml of rat milk substitute (RMS) consisting of prepared infant formula (Esbilac formula, Pet-Ag, New Hampshire, Ill.) plus or minus the therapeutic supplement every three hours. EGF (Austral Biologics, San Ramon, Calif.) was produced by genetically engineered yeast and purified by sequential chromatography and reverse phase high pressure liquid chromatography (HPLC) and determined to be >97% pure by N-terminal amino acid sequencing, amino acid composition, HPLC analysis and SDS gel electrophoresis. Arginine (L-arginine hydrochloride, crystalline, ICN Biomedicals Inc, Aurora, Ohio) was produced by a proprietary synthetic process. EGF (100 ng/ml) and L-arginine (1.35-2.7 mg/ml) were admininstered based on daily feed intake to achieve a dose of 1.5 mmol/kg/day of L-arginine (in standardized units these doses work out to ˜20 ug EGF/kg/day and ˜316 mg L-arginine/kg/day, for a ratio of about 1:472 500 mole/mole). The EGF and L-arginine were gently vortexed and thoroughly mixed into the Esbilac infant formula. After 48 hrs of feeding, volumes were advanced slowly to 0.3 ml as tolerated. To induce clinical disease rats were stressed twice daily with asphyxia by breathing 100% nitrogen gas for 60 sec followed by cold stress at 4° C. for 10 min starting one hour after birth.
Six separate experimental groups were studied: unstressed rats artificially fed with EGF-free rat milk substitute (RMS) (Control, n=10); stressed rats that were dam-fed (Control (s), n=7); stressed rats artificially fed EGF-free RMS (NEC, n=10); stressed rats artificially fed RMS supplemented with 100 ng/ml recombinant human EGF (EGF-NEC, n=6); stressed rats artificially fed RMS supplemented with 1.5 mmol L-arginine/kg/day (ARG-NEC, n=6); and stressed rats artificially fed RMS supplemented with 100 ng/ml recombinant human EGF+1.5 mmol L-arginine/kg/day (EGF/ARG-NEC, n=8). Animals that developed abdominal distension, respiratory distress or lethargy during the 96-hour course of the experiment were terminated. After 96 hours all surviving animals were killed by decapitation and the small intestine removed for further analysis.
(§2) Body weights and tail lengths were recorded daily, and twice daily urination and defecation was induced by gentle stimulation of the anogenital region and stool collected for future analysis. The small intestine was visually assessed for clinical signs of NEC such as intestinal hemorrhage and discoloration, and ileal distension and stenosis. The small intestine was then divided into two halves and 2-3 cm of tissue from the distal segment (ileum) fixed, embedded in paraffin, and counterstained with hematoxylin and eosin for histological evaluation of NEC (14). Histology was evaluated in a blinded manner and graded as follows: normal (0) showing no damage; mild (+1) showing slight submucosal and/or lamina propria separation (+2); moderate (+2) displaying moderate separation of the submucosa and/or lamina propria, and/or edema in the submucosal and muscular layers; severe (+3) showing severe separation of submucosa and/or lamina propria, and/or severe edema in the submucosal and muscular layers, and regional villus sloughing; necrosis (+4) displaying loss of villi and necrosis (14). The length of the remaining ileum was measured and the tissue homogenized in 2.5 mM ethylenediaminetetraacetic acid (EDTA), snap frozen in liquid nitrogen, and stored at […] for later analysis of lactase activity (21) and ileal protein (5) and DNA (3 1) content.
(§3) Data are expressed as means ±SE. […]

[2] = test system: neonatal rat model of necrotizing enterocolitis; assay: Neonatal rat model of necrotizing enterocolitis: histological evaluation of distal ileal tissue; assay type: in vivo; settings: for histological damage scores: distal ileal tissue, compared to NEC animals, FIG. 5; for appearance of ileal tissue sections (photomicrographs): distal ileum, hematoxylin and eosin, FIG. 4
Method: as §1, with “To induce clinical disease rats were stressed twice daily with asphyxia by breathing 100% nitrogen gas for 60 sec followed by cold stress at 4° C. for 10 min starting one hour after birth.” left out
as §2, with “The small intestine was then divided into two halves and 2-3 cm of tissue from the distal segment (ileum) fixed, embedded in paraffin, and counterstained with hematoxylin and eosin for histological evaluation of NEC (14).” left out
as §3

lactase = assay: Neonatal rat model of necrotizing enterocolitis: total lactase activity in distal ileal tissue; assay type: in vivo; settings: compared to untreated NEC rats, FIG. 6
Method: These studies utilized a well-validated neonatal rat model of necrotizing enterocolitis (14). Briefly, neonatal Sprague-Dawley rats (Charles River Laboratories Inc., Wilmington, Mass.) were collected from their mothers immediately after birth, prior to suckling maternal milk. Animals were weighed and placed in infant incubators to control body temperature. Subsequently, rats were hand fed via the orogastric route 0.1 ml of rat milk substitute (RMS) consisting of prepared infant formula (Esbilac formula, Pet-Ag, New Hampshire, Ill.) plus or minus the therapeutic supplement every three hours. EGF (Austral Biologics, San Ramon, Calif.) was produced by genetically engineered yeast and purified by sequential chromatography and reverse phase high pressure liquid chromatography (HPLC) and determined to be >97% pure by N-terminal amino acid sequencing, amino acid composition, HPLC analysis and SDS gel electrophoresis. […]
Body weights and tail lengths were recorded daily, and twice daily urination and defecation was induced by gentle stimulation of the anogenital region and stool collected for future analysis. The small intestine was visually assessed for clinical signs of NEC such as intestinal hemorrhage and discoloration, and ileal distension and stenosis. […]
as §3

[3] = test system: necrotizing enterocolitis; settings: 152 infants, birthweight ≦1250 g, gestational age ≦32 weeks; dietary L-arginine supplementation; reduced from 27%; cited from earlier work
[4] = test system: neonatal piglet model of NEC; settings: infusion; cited from earlier work
[5] = test system: necrotizing enterocolitis; settings: cited from earlier work
[6] = stressed neonatal rats, RMS with EGF 100 ng/ml and/or L-arginine 1.5 mmol/kg/day, 96 h, compared to untreated (NEC) group

| Molecule | discoloration (visual assessment of luminal blood) ([1]; compared to controls) | stenosis ([1]; compared to controls) | discoloration (visual assessment of luminal blood) ([1]; compared to untreated group) | discoloration (visual assessment of luminal blood) ([1]; compared to untreated group, listed as L-arginine) | clinical scoring on autopsy (overall clinical appearance, pathology/damage scores) [1, 6] | histological damage scores [2] | appearance of ileal tissue sections (photomicrographs) [2] | total lactase activity (lactase) | incidence of NEC [3] [%] | intestinal injury [4] | clinical scoring on autopsy (overall clinical appearance, pathology/damage scores) ([1]; same treatment, compared to control animals) | protective effect ([5]; EGF at 500 ng/ml) | clinical benefit ([5]; EGF at physiological concentration of 100 ng/ml) |
| --- | --- | --- | --- | --- | --- | --- | --- | --- | --- | --- | --- | --- | --- |
| N=C(N)NCCCC(N)C(=O)O (stereo not shown) [Arg, 2-amino-5-guanidinovaleric acid] | significantly elevated | significant stenosis | significantly less discoloration than observed in the untreated group | decreased the appearance of blood in the lumen | did not differ | did not differ | Significant damage | did not alter the deficit in lactase activity | 7 | markedly reduced intestinal injury |  |  |  |
| EGF: 53-amino acid protein, human EGF sequence SEQ ID NO: 1, produced by genetically engineered yeast (Austral Biologics) | significantly elevated | significant stenosis |  |  | significantly less than that observed in the untreated (NEC) group; also recorded: some protection against physical damage to the intestine | did not differ | Significant damage | did not alter the deficit in lactase activity |  |  | still significantly increased over control animals | protective effect | no significant clinical benefit |

Source: patent US20070254837A1, “Treatment for Necrotizing Enterocolitis” (UNIVERSITY TECHNOLOGIES INTERNATIONAL INC., priority 2003, published 2007)
